Patent US20110245242A1, “Heterocyclically Substituted Anilinopyrimides” (Bayer CropScience AG, priority 2008, published 2011)

Assay: log P by HPLC on reversed-phase columns (C 18), method [a], acidic range pH 2.3
Type: physicochemical
Conditions: pH 2.3
Protocol: The log P values were measured in accordance with EEC Directive 79/831 Annex V.A8 by HPLC (High Performance Liquid Chromatography) on reversed-phase columns (C 18) using the methods below: [a] The determination was carried out in the acidic range at pH 2.3 using the mobile phases 0.1% aqueous phosphoric acid and acetronitrile linear gradient from 10% acetonitrile to 95% acetronitrile.

Row | Structure (SMILES) | log p | log P (pH 2.3)
1 | O=C1CCC(CO)N1c1cccc(Nc2ncc(Cl)c(NC3CC3)n2)c1 (stereo not drawn) [Example 86] | 0.98[a] | 
2 | CC1COC(=O)N1c1cccc(Nc2ncc(Cl)c(NC3CCC3)n2)c1 (stereo not drawn) [Example 57] | 1.81[a] | 
3 | COCC(C)Nc1nc(Nc2cccc(N3CCCC3=O)c2)ncc1Cl (stereo not drawn) [Example 2] | 1.53[a] | 
4 | CC(C)CC1COC(=O)N1c1cccc(Nc2ncc(Cl)c(NC3CCC3)n2)c1 (stereo not drawn) [Example 49] | 2.83[a] | 
5 | CC(C)CC1COC(=O)N1c1cccc(Nc2ncc(Br)c(NC3CCC3)n2)c1 (stereo not drawn) [Example 50] | 3.05[a] | 
6 | O=C1OCCN1c1ccc(Nc2ncc(C(F)(F)F)c(Cl)n2)cc1 [VI-4, 3-(4-{[4-Chloro-5-(trifluoromethyl)pyrimidin-2-yl]amino}phenyl)-1,3-oxazolidin-2-one] |  | 2.76
7 | CC(C)C1COC(=O)N1c1cccc(Nc2ncc(Br)c(NC3CC3)n2)c1 (stereo not drawn) [Example 45] | 2.24[a] | 
8 | CCCNc1nc(Cl)ncc1Cl [Example V-38, 2,5-Dichloro-N-propylpyrimidin-4-amine] | 2.42 | 
9 | CC(C)C1COC(=O)N1c1cccc(Nc2ncc(Cl)c(NC3CC3)n2)c1 (stereo not drawn) [Example 39] | 2.13[a] | 
10 | CC1CCN(c2cccc(Nc3ncc(Cl)c(NC4CC4)n3)c2)C1=O (stereo not drawn) [Example 26] | 1.76[a] | 
11 | CC(C)C1COC(=O)N1c1cccc(Nc2ncc(Cl)c(NC3CCC3)n2)c1 (stereo not drawn) [Example 46] | 2.41[a] | 
12 | CCC1COC(=O)N1c1cccc(Nc2ncc(Br)c(NC3CC3)n2)c1 (stereo not drawn) [Example 32] | 2.01[a] | 
13 | CCC1=C(C)CN(c2cccc(Nc3ncc(Br)c(NC4CC4)n3)c2)C1=O [Example 232] | 2.42[a] | 
14 | C[C@@H]1COC(=O)N1c1cccc(Nc2ncc(Cl)c(NC3CC3)n2)c1 [Example 103] | 1.8[a] | 
15 | CC(C)[C@H]1COC(=O)N1c1cccc(Nc2ncc(Cl)c(N(C)C3CC3)n2)c1 [Example 115] | 3.09[a] | 

Same assay, conditions: pH 2.3, log P (pH 2.3)

Row | Structure (SMILES) | chromatographic logP
16 | Brc1cnc(Nc2cccc(I)c2)nc1NC1CC1 [VII-2, 5-Bromo-N^4-cyclopropyl-N^2-(3-iodophenyl)pyrimidine-2,4-diamine] | 3.34
17 | Nc1cccc(N2CCOC2=O)c1 [3-(3-Aminophenyl)-1,3-oxazolidin-2-one] | -0.18
18 | CN(c1nc(Cl)ncc1Cl)C1CC1 [Example V-26, 2,5-Dichloro-N-methyl-N-cyclopropylpyrimidin-4-amine] | 2.82
19 | Clc1cnc(Nc2cccc(Br)c2)nc1NC1CC1 [VII-5, N^2-(3-Bromophenyl)-5-chloro-N^4-cyclopropylpyrimidine-2,4-diamine] | 2.91
20 | Clc1ccc(Nc2ncc(Cl)c(NC3CC3)n2)cc1Br [VII-6, N^2-(3-Bromo-4-chlorophenyl)-5-chloro-N^4-cyclopropylpyrimidine-2,4-diamine] | 3.55
21 | FC(F)(F)Oc1ccc(Nc2ncc(Cl)c(NC3CC3)n2)cc1Br [VII-3, 5-Chloro-N^2-[3-bromo-4-(trifluoromethoxy)phenyl]-N^4-cyclopropylpyrimidine-2,4-diamine] | 3.99
22 | Nc1cc(N2C(=O)CCC2=O)ccc1Cl [1-(3-Amino-4-chlorophenyl)pyrrolidine-2,5-dione] | 0.79
23 | Clc1ncc(Cl)c(N2CCCC2)n1 [Example V-34, 2,5-Dichloro-4-(pyrrolidin-1-yl)pyrimidine] | 2.78
24 | Brc1ccc(Nc2ncc(Br)c(NCC3CC3)n2)cc1 [VII-9, 5-Bromo-N^2-(4-bromophenyl)-N^4-(cyclopropylmethyl)pyrimidine-2,4-diamine] | 2.84
25 | FC(F)(F)c1cc(Br)cc(Nc2ncc(Cl)c(NC3CC3)n2)c1 [VII-7, N^2-[3-Bromo-5-(trifluoromethyl)phenyl]-5-chloro-N^4-cyclopropylpyrimidine-2,4-diamine] | 4.6
26 | COc1cc(NC(=O)CCCCl)cc([N+](=O)[O-])c1 [4-Chloro-N-(3-methoxy-5-nitrophenyl)butanamide] | 2.46
27 | O=C1OCCN1c1ccc(Nc2ncc(C(F)(F)F)c(Cl)n2)cc1 [VI-4, 3-(4-{[4-Chloro-5-(trifluoromethyl)pyrimidin-2-yl]amino}phenyl)-1,3-oxazolidin-2-one] | 2.74
28 | C[C@@H]1COC(=O)N1c1cccc(N)c1 [(4R)-3-(3-Aminophenyl)-4-methyl-1,3-oxazolidin-2-one] | 0.27
29 | Clc1cnc(Nc2ccc(I)cc2)nc1NC1CC1 [5-Chloro-N^4-cyclopropyl-N^2-(4-iodophenyl)pyrimidine-2,4-diamine] | 2.73
30 | COCC(C)Nc1nc(Cl)ncc1C#N (stereo not drawn) [Example V-30, 2-Chloro-4-[(1-methoxypropan-2-yl)-amino]pyrimidine-5-carbonitrile] | 1.83
31 | CC1CN(c2cccc(N)c2)C(=O)O1 (stereo not drawn) [3-(3-Aminophenyl)-5-methyl-1,3-oxazolidin-2-one] | 0.33
32 | CC1(C)CC(=O)N(c2cccc(N)c2)C1=O [1-(3-Aminophenyl)-3,3-dimethylpyrrolidine-2,5-dione] | 0.86
33 | CC1(C)CC(=O)N(c2cccc([N+](=O)[O-])c2)C1=O [3,3-Dimethyl-1-(3-nitrophenyl)pyrrolidine-2,5-dione] | 2.01
34 | O=C1CCCN1c1cccc(Nc2ncc(C(F)(F)F)c(Cl)n2)c1 [VI-1, 1-(3-{[4-Chloro-5-(trifluoromethyl)pyrimidin-2-yl]amino}phenyl)pyrrolidin-2-one] | 2.98
35 | COc1cc(N2CCCC2=O)cc([N+](=O)[O-])c1 [1-(3-Methoxy-5-nitrophenyl)pyrrolidin-2-one] | 1.99
36 | Clc1cnc(Nc2ccc(Br)cc2)nc1NC1CC1 [VII-8, N^2-(4-Bromophenyl)-5-chloro-N^4-cyclopropylpyrimidine-2,4-diamine] | 2.55
37 | Nc1ccc(F)c(N2CCCC2=O)c1 [1-(5-Amino-2-fluorophenyl)pyrrolidin-2-one] | 0.31

Assay: log P by LC-MS, method [b], acid range pH 2.7
Type: physicochemical
Conditions: pH 2.7
Protocol: The log P values were measured in accordance with EEC Directive 79/831 Annex V.A8 by HPLC (High Performance Liquid Chromatography) on reversed-phase columns (C 18) using the methods below:
[b] The LC-MS determination in the acid range was carried out at pH 2.7 using the mobile phases 0.1% aqueous formic acid and acetonitrile (contains 0.1% formic acid)
linear gradient from 10% acetonitrile to 95% acetonitrile.

Row | Structure (SMILES) | log p
38 | CNc1nc(Nc2cccc(N3CCCC3=O)c2)ncc1C(F)(F)F [Example 323] | 1.63[b]
39 | CC1(C)CC(=O)N(c2cccc(Nc3ncc(Br)c(NCC4CC4)n3)c2)C1=O [Example 132] | 2.02[b]
40 | COCC(C)Nc1nc(Nc2cccc(N3C(=O)CC(C)C3=O)c2)ncc1Br (stereo not drawn) [Example 70] | 1.68[b]
41 | CC1CC(=O)N(c2cccc(Nc3ncc(Cl)c(NCC4CC4)n3)c2)C1=O (stereo not drawn) [Example 71] | 1.68[b]
42 | CC1CC(Nc2nc(Nc3cccc(N4C(=O)C(C)CC4C)c3)ncc2Br)C1 (stereo not drawn) [Example 291] | 2.66[b]
43 | CC(C)[C@@H]1COC(=O)N1c1cccc(Nc2ncc(Cl)c(NC3CC3)n2)c1 [Example 75] | 2.39[b]
44 | CC1(C)CN(c2cccc(Nc3ncc(Cl)c(NC4CC4)n3)c2)C1=O [Example 53] | 2.07[b]
45 | O=C1CCCN1c1cccc(Nc2ncc(C(F)(F)F)c(NC3COC3)n2)c1 [Example 322] | 1.84[b]
46 | CC(C)[C@H]1COC(=O)N1c1cccc(Nc2ncc(Cl)c(NCC(F)F)n2)c1 [Example 112] | 2.39[b]
47 | CC(CF)Nc1nc(Nc2cccc(N3CCCC3=O)c2)ncc1C(F)(F)F (stereo not drawn) [Example 298] | 2.48[b]
48 | O=C1OCCN1c1cccc(Nc2ncc(Br)c(NCC(F)F)n2)c1 [Example 162] | 1.71[b]
49 | CC(C)[C@H]1COC(=O)N1c1cccc(Nc2ncc(Cl)c(NCC3CC3)n2)c1 [Example 109] | 2.17[b]
50 | O=C1N(CCCl)CCN1c1cccc(Nc2ncc(Br)c(NC3CC3)n2)c1 [Example 285] | 1.92[b]
51 | CC1CC(=O)N(c2cccc(Nc3ncc(Br)c(NC4CCC4)n3)c2)C1 (stereo not drawn) [Example 98] | 2.16[b]
52 | COCC(C)Nc1nc(Nc2cccc(N3C(=O)OC[C@H]3C)c2)ncc1Br (stereo partly drawn) [Example 183] | 1.71[b]
53 | O=C1OCC(c2ccccc2)N1c1cccc(Nc2ncc(Br)c(NC3CC3)n2)c1 (stereo not drawn) [Example 91] | 2.3[b]

Row | Structure (SMILES) | log p
54 | CC1CC(C)N(c2cccc(Nc3ncc(Cl)c(NCC(F)(F)F)n3)c2)C1=O (stereo not drawn) [Example 171] | 2.51[b]
55 | C[C@H]1COC(=O)N1c1cccc(Nc2ncc(Cl)c(NC3CCC3)n2)c1 [Example 93] | 1.82[b]
56 | CCC1COC(=O)N1c1cccc(Nc2ncc(Cl)c(NC3CCC3)n2)c1 (stereo not drawn) [Example 35] | 2.09[b]
57 | COCC(C)Nc1nc(Nc2cccc(N3C(=O)CC(C)C3=O)c2)ncc1Cl (stereo not drawn) [Example 68] | 1.59[b]
58 | CC(C)Nc1nc(Nc2ccc(N3C(=O)OCC3C)cc2)ncc1Br (stereo not drawn) [Example 150] | 1.68[b]
59 | O=C1OCC(c2ccccc2)N1c1cccc(Nc2ncc(Br)c(NC3CCC3)n2)c1 (stereo not drawn) [Example 90] | 2.8[b]
60 | CC(C)Nc1nc(Nc2cccc(N3C(=O)C(C)CC3C)c2)ncc1Br (stereo not drawn) [Example 149] | 1.98[b]
61 | CC1CCC(=O)N1c1cccc(Nc2ncc(Br)c(NCC(F)F)n2)c1 (stereo not drawn) [Example 167] | 1.91[b]
62 | CC1(C)CC(=O)N(c2cccc(Nc3ncc(C(F)(F)F)c(NC4CCC4)n3)c2)C1=O [Example 192] | 3.03[b]
63 | O=C1N(CCCl)CCN1c1cccc(Nc2ncc(Cl)c(NC3CC3)n2)c1 [Example 286] | 1.82[b]
64 | CC(C)Nc1nc(Nc2cccc(N3C(=O)CC(C)C3=O)c2)ncc1Cl (stereo not drawn) [Example 145] | 1.59[b]
65 | CC1(C)CC1Nc1nc(Nc2cccc(N3CCCC3=O)c2)ncc1C(F)(F)F (stereo not drawn) [Example 321] | 3.04[b]
66 | Cc1ccc(Nc2ncc(Cl)c(NC3CCC3)n2)cc1N1CCOC1=O [Example 105] | 1.6[b]
67 | COCC(C)Nc1nc(Nc2cccc(N3CCCC3=O)c2)ncc1C#N (stereo not drawn) [Example 24] | 1.99[b]
68 | CC1(C)CC(=O)N(c2cccc(Nc3ncc(Cl)c(NCC(F)F)n3)c2)C1=O [Example 156] | 2.01[b]
69 | O=C1CCCN1c1cccc(Nc2ncc(C(F)(F)F)c(NC3CCCC3)n2)c1 [Example 303] | 3.04[b]
